Results: BindingDB's records for patent US20250074910 (Hitgen, 2025)

Target: T1, Menin (Homo sapiens, UniProt O00255)
T1 sequence (O00255 whole entry): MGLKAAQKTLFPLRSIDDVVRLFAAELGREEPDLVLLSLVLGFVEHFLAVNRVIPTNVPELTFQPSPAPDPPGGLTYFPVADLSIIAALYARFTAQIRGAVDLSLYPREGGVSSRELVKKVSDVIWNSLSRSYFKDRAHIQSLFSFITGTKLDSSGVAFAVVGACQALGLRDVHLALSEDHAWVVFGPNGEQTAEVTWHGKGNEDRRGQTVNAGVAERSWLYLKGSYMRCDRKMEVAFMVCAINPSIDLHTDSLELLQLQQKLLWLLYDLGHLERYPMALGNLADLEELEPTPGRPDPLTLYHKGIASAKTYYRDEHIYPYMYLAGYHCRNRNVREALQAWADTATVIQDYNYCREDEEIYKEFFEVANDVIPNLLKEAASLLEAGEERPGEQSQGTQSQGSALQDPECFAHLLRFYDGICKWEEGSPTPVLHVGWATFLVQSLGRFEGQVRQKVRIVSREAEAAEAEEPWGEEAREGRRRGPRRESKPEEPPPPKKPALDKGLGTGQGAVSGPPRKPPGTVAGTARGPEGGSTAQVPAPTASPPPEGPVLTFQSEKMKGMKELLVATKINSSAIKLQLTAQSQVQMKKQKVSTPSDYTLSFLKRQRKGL
Assay: Menin-MLL Interaction Inhibitory Activity Assay
Protocol: The inhibition of Menin/MLL-4-43 peptide interaction by small molecule inhibitors was quantitatively detected by fluorescence polarization competition assay. The experiment was performed in a 384-well plate (Corning, Cat #3575) using a reaction buffer consisting of 50 mM Tris, pH 7.5, 50 mM NaCl, and 1 mM DTT. A 40 μL reaction system included 10 μL of 8 nM Menin recombinant protein and 10 μL of the test compound at different concentrations. The compound was pre-incubated with Menin protein for 15 min, and then 20 μL of 10 nM FITC-MLL4-43-peptide was added. After incubation on a shaker at 25° C. for 60 min, the fluorescence polarization signal (FP 485 520 520) was read using BMG PHERAStar detection. The experimental data was analyzed and processed by GraphPad Prism 6 software to obtain the IC50 value.

Structure (SMILES)	IC50 [nM]
CCN(C(=O)c1cc(F)ccc1Oc1cncnc1N1CC2(CCN(C[C@H]3CC[C@@]4(CCC(=O)N4)CC3)CC2)C1)C(C)C [US20250074910, Example 1]	36.3
CC(C)N(C(=O)c1cc(F)ccc1Oc1nncnc1N1CC2(CCN(C[C@H]3CC[C@]4(CC3)CC(CO)(CO)C(=O)N4)CC2)C1)C(C)C [US20250074910, Example 63]	8.3
